The source of these data is US12616754B2, “Composition for delivery of a bioactive agent and method of manufacture and use thereof” (priority 2020, dated 2026).

Common to all, as to assay: Cell viability WST-8 assay
Holding throughout (type): cell-based

For assay [1], the system named is LL2 Lewis lung carcinoma cells. To be noted: LL2, 24 h. How it is done: (§1) A549, BEAS-2B, H1299 and LL2 cells were cultured in 96-well plates at a density of 1×10^4 cells/well in DMEM supplemented with 2.0 mM L-glutamine, 50 μg/mL gentamicin, and 10% (v/v) fetal bovine serum at 37° C. in 5% CO2. Cells were then treated with various concentrations of free DOX, DNA NGs, and DNA-DOX NGs. After 24 h incubation, cell proliferation was evaluated using a WST-8 reagent (Dojindo Molecular Laboratories, Japan). After transferring the supernatant to 96-well plates, the supernatant was measured on a VersaMax Microplate Reader (Molecular Devices, Sunnyvale, CA, USA) at the wavelength of 405 nm. Cell viability was determined using the following equation: cell viability (%)=[(Abs405 nm in the treated sample cells−Abs405 nm in blank)/(Abs405 nm in untreated control cells−Abs405 nm in blank)]×100, wherein Abs405 nm refers to absorbance at 405 nm.

Assay [2] relates to H1299 non-small cell lung carcinoma cells. Conditions: H1299, 24 h. The procedure: as §1
Assay [3] concerns A549 lung adenocarcinoma cells. Conditions: A549, 24 h. How it is done:
as §1

For assay [4], the system named is BEAS-2B bronchial epithelial cells. To be noted: 24 h. The procedure:
as §1

Broadly, the IC50 is the concentration at which inhibition is half-maximal.

Regarding `COc1cccc2c1C(=O)c1c(O)c3c(c(O)c1C2=O)C[C@@](O)(C(=O)CO)C[C@@H]3O[C@H]1C[C@H](N)[C@H](O)[C@H](C)O1.Cl` [Free DOX, doxorubicin hydrochloride], the IC50 in assay [1] worked out at 2.33 µg/mL; in assay [2], 18.9 µg/mL; in assay [3], 2.92 µg/mL; in assay [4], 5.11 µg/mL.
